Experimental data taken from article PMC7821181, “MS Binding Assays for Glycine Transporter 2 (GlyT2) Employing Org25543 as Reporter Ligand” (Chemmedchem, 2020).
Read-outs that look alike come from different tables or passages of the source.

Tests used:
[1] = target: T1, GlyT2 (Homo sapiens, UniProt Q9Y345); assay: preliminary Org25543 saturation experiments in absence or presence of glycine; assay type: binding; details: for Bmax in relation to control without glycine (100 %) / Kd in relation to control without glycine (100 %): mean ± SD, two experiments
T1 construct: host or cells: HEK293 cells stably expressing hGlyT2; crude membrane fractions
T1 sequence (Q9Y345 1-797): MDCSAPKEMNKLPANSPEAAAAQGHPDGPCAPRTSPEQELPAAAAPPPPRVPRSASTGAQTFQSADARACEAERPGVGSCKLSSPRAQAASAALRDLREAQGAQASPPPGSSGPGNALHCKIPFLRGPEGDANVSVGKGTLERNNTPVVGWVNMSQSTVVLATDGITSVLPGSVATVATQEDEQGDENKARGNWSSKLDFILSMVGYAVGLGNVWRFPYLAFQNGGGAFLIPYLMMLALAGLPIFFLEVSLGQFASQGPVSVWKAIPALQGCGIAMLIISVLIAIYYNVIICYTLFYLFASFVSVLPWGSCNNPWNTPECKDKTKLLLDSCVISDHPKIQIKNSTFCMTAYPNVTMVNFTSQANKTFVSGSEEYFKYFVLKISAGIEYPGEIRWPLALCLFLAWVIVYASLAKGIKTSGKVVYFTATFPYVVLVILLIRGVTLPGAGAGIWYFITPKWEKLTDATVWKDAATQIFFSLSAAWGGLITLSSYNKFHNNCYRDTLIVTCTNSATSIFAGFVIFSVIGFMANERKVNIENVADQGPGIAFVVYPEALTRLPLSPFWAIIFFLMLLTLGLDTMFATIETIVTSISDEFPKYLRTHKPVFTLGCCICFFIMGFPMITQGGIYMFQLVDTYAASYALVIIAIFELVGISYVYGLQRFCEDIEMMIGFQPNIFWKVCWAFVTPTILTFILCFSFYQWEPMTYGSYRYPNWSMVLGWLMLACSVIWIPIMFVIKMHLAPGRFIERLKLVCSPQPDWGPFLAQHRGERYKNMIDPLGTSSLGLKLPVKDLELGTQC
Procedure: glass fiber, 1.0 µm, 350 µL; Pall Corporation, Port Washington, NY, USA) were washed with water (3 x 200 µL) and methanol (3 x 200 µL) and subsequently pre-incubated for 2 h at room temperature with 0.5 % polyethylenimine (PEI). […]
KCl, 1 mM MgCl2, 1 mM CaCl2, pH 7.5) in polypropylene 96 well plates (1.2 mL well volume, Sarstedt, Nümbrecht, Germany) in total volume of 250 µL at 37 °C in a shaking water bath. After the incubation times for the filters and incubation samples had been expired, PEI was removed from the filters by vacuum filtration and 210 µL aliquots of the incubation samples were transferred on the filters and were removed by vacuum filtration as well. The filters were washed with ammonium ac etate buffer (3 x 200 µL, 154 mM, pH 7.4) and were dried at 50 °C for 1 h. After that the remaining Org25543 on the filters were washed down with acetonitrile (3 x 70 µL) containing [ 2H7]Org25543 (125 pM) and 52.5 µL ammonium bicarbonate buffer (5 mM, pH 7.8) was added to the samples to adjust the sample solvent to the mobile phase (5 mM ammonium bicarbonate buffer ( pH 7.8)/acetonitrile ( 20:80, v/v)). Finally, the samples were subjected to LC-ESI-MS/MS quantification without further sample preparation. […]
Investigating the inhibition mode of glycine in preliminary Org25543 saturation […]
In these preliminary experiments saturation experiments were performed in the same way as it is described in the Material and methods part except that Org25543 and GlyT2 were incubated either in the absence of glycine or in the presence of 2, 20 or 200 mM glycine. The saturation isotherms of a representative experiment are depicted […]
(control) in all experiments and Kd and Bmax values determined in the presence of the […]

[2] = system: GlyT2; details: ref 23, 27; read-out: IC50 (literature range); cited from earlier work
[3] = system: GlyT2; set-up: method as in PMID 15964938; details: ref 27; read-out: IC50 in FLIPR membrane potential assay; cited from earlier work
[4] = system: GlyT2; details: ref 23; read-out: IC50 in [3H]glycine uptake assay; cited from earlier work

COc1cc(C(=O)NCC2(N(C)C)CCCC2)cc(OC)c1OCc1ccccc1 [Org25543, N‐[[1‐(dimethylamino)cyclopentyl]methyl]‐3,5‐dimethoxy‐4‐(phenylmethoxy)benzamide]
Bmax in relation to control without glycine (100 %) ([1]; 2 mM glycine): 106 ± 13%
Kd in relation to control without glycine (100 %) ([1]; 2 mM glycine): 129 ± 24%
Bmax in relation to control without glycine (100 %) ([1]; 20 mM glycine): 101 ± 12%
Kd in relation to control without glycine (100 %) ([1]; 20 mM glycine): 222 ± 56%
Kd in relation to control without glycine (100 %) ([1]; 200 mM glycine): 814 ± 154%
B max (representative preliminary saturation experiment) ([1]; in the presence of 2 mM glycine): 9.75 pmol (mg protein)-1
B max (representative preliminary saturation experiment) ([1]; in the presence of 20 mM glycine): 9.24 pmol (mg protein)-1
B max (representative preliminary saturation experiment) ([1]; in the presence of 200 mM glycine): 8.74 pmol (mg protein)-1
B max (representative preliminary saturation experiment) ([1]; without glycine): 8.45 pmol (mg protein)-1
Kd ([1]; without glycine, read-out: K d of Org25543 (representative preliminary saturation experiment)): 0.00518 µM
IC50 [2]: 0.016 to 0.031 µM
IC50 [3]: 0.031 ± 0.006 µM
IC50 [4]: 0.016 ± 0.0019 µM
